PMC11505594, “Design, Synthesis, and Anti-Melanogenic Activity of 2-Mercaptomethylbenzo[d]imidazole Derivatives Serving as Tyrosinase Inhibitors: An In Silico, In Vitro, and In Vivo Exploration” (Antioxidants, 2024)
“Also recorded” adds a separate entry of the source. Where two headings read alike, the source gives them in different places.

Tests used:
mushroom TYR [1] = molecular target: T1, mushroom TYR (Agaricus bisporus, UniProt C7FF04); assay: Mushroom TYR activity assay with and without CuSO4; format: biochemical; conditions: 20 μM derivative, L-tyrosine
Experimental: To determine whether copper(II) ions influence the TYR-inhibitory activity of 2-MMBI derivatives, the effects of these derivatives on mushroom TYR activity were measured with and without CuSO4. Briefly, mushroom TYR aqueous solution (20 μL, 1 unit/μL) was mixed with 2-MMBI derivatives (1, 3, and 8–10) (10 μL, final concentration: 20 μM) and with the substrate solution (170 μL), comprising 17.2 mM phosphate buffer (pH 6.5) and 345 μM L-tyrosine, in the presence or absence of CuSO4 (50 μL, final concentration: 50 μM) in each well of a 96-well plate. […] Each assay was carried out independently in triplicate.

mushroom TYR [2] = molecular target: T1, mushroom TYR; assay: Kinetic studies on mushroom TYR (Lineweaver–Burk and Dixon plots); format: biochemical; conditions: L-dopa as substrate
Experimental: Kinetic experiments were performed to obtain Lineweaver–Burk plots for the analysis of mushroom TYR kinetics. Mushroom TYR solution (20 μL, 150 units/mL) was added to each well of a 96-well microplate containing 2-MMBI derivatives (10 μL; 0, 7.5, 15, and 30 μM for 1; 0, 5, 10, and 20 μM for 3 and 8; and 0, 12.5, 25, and 50 μM for 9) and a substrate solution (170 μL) composed of sodium phosphate buffer (17.2 mM; pH 6.5) and L-dopa (various concentrations: 0.5, 1, 2, 4, 8, and 16 mM). […] Lineweaver–Burk plots for each 2-MMBI derivative were obtained by plotting the value of 1/[substrate] against the value of (min/ΔOD475). Lineweaver–Burk plots were transformed into corresponding Dixon plots by plotting the value of (min/ΔOD475) against the value of the 2-MMBI derivative concentration.

B16F10 cells = assay: Melanin content measurement assay in B16F10 cells; format: cell-based, murine; conditions: α-MSH 1 μM plus IBMX 200 μM, 72 h; for effect on B16F10 cellular melanin production at three concentrations: 2, 5, and 10 μM
Experimental: A 6-well plate containing 5 × 10^3 B16F10 cells per well was incubated at 37 °C and 5% CO2 for 1 day. […] After 1 h, 1 μM α-MSH and 200 μM IBMX were added to each well, and the plate was subsequently incubated at 37 °C and 5% CO2 for 72 h. The cells were exposed to […] 1N-NaOH solution and cultured at 60 °C for 1 h after washing with PBS. The lysates were transferred to each well of a 96-well plate, and the optical density at 405 nm was recorded using a VersaMax™ reader. […] Each assay was independently performed three times.

zebrafish larvae = assay: Melanogenesis (depigmentation) assay using zebrafish embryos; format: in vivo
Experimental: To assess depigmentation in vivo, wild-type zebrafish (Danio rerio) embryos were acquired free of charge from the Zebrafish Center for Disease Modeling (ZCDM) located at Chungnam National University in Daejeon, Republic of Korea. The zebrafish were raised in tanks maintained at 28 °C in the ZCDM. The tanks were oxygenated, and the tank lights were turned off for 10 h and on for 14 h. The zebrafish embryos used for in vivo depigmentation experiments were obtained through natural mating. The E3 solution for zebrafish embryos was prepared by dissolving 19.9 mg magnesium sulfate, 6.4 mg potassium chloride, 18.3 mg calcium chloride, and 146.1 mg sodium chloride in 500 mL distilled water. E3-MB (methylene blue) solution was prepared by adding MB to the E3 solution to create a 0.001% MB solution. The acquired zebrafish embryos were transferred to a culture dish containing the E3-MB solution. The culture dish was incubated at 28 °C until zebrafish embryos were used. Since zebrafish embryos are sensitive and can be easily killed by the chorion removal process 20 h post-fertilization (20 hpf), the chorion was removed at 24 hpf through treatment with pronase (Sigma-Aldrich, St. Louis, MO, USA). Five dechorionated zebrafish embryos were transferred to each well of 48-well microplates containing 250 μL E3 solution. […] Zebrafish larvae were anesthetized with tricaine at 76 hpf and placed on a 1% methylcellulose block to determine the degree of zebrafish larva depigmentation. Dorsal and lateral images of the zebrafish larvae were acquired using an SMZ745T microscope (Nikon, Tokyo, Japan). The pigmented areas of the dorsal and lateral images were obtained using CS analyzer 3.0 image analysis software (ATTO, Tokyo, Japan). Each assay (n = 7) was independently performed two times.

[3] = Reactive oxygen species removal activity assay (SIN-1, DCFH); conditions: test samples 40 μM; SIN-1 10 μM
Experimental: To assess reactive oxygen species (ROS) removal activity, a DCFH solution was prepared by mixing 50 μL DCFH-DA (1.25 mM), 50 μL esterase (0.6 unit/μL), and 4.9 mL phosphate buffer (50 mM) and maintained in the dark for 30 min. The SIN-1 solution (10 μL) was added to each well of a 96-black well that contained the test sample (10 μL; 2-MMBI derivatives 1–10 and Trolox [positive material]) and phosphate buffer (180 μL). 2-MMBI derivatives, Trolox, and SIN-1 were exposed at final concentrations of 40, 40, and 10 μM, respectively. The prepared DCFH solution (50 μL) was added to each well after 10 min. The fluorescence intensity of 2′,7′-dichlorofluorescein in the wells was measured at 535 nm using a microplate reader (Berthold Advances GmbH & Co., Bad Wildbad, Germany) with an excitation wavelength of 485 nm. Each experiment was conducted independently four times.

B16F10 cellular TYR = molecular target: T2, B16F10 cellular TYR (Mus musculus, UniProt P11344); assay: TYR activity assay in B16F10 cells; format: cell-based, murine; conditions: 2, 5, and 10 μM; α-MSH 1 μM plus IBMX 200 μM; 72 h
T2 construct: The in situ cellular TYR activities of the 2-MMBI derivatives were investigated using B16F10 cells; endogenous in cells; host or cells: B16F10 murine melanoma cells stimulated with alpha-MSH and IBMX
T2 sequence (P11344 19-533): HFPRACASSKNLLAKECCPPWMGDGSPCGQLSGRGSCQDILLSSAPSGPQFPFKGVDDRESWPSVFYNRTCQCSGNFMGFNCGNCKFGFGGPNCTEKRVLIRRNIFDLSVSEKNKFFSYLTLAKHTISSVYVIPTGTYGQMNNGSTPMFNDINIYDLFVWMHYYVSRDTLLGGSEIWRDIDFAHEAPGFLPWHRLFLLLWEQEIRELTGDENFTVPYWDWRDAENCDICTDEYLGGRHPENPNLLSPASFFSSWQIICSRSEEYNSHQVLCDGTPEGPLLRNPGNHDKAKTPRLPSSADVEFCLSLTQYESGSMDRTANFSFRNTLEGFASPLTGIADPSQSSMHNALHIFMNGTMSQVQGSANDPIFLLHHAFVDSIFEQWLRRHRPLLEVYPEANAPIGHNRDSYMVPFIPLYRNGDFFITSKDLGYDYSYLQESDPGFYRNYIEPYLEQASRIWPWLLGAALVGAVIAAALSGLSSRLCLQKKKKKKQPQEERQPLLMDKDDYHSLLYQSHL
Experimental: A 6-well plate containing 5 × 10^3 B16F10 cells per well was incubated (37 °C and 5% CO2) for 1 day. […] Stimulators (1 μM α-MSH and 200 μM IBMX) were added after 1 h, and the plate was incubated (37 °C and 5% CO2) for 72 h. After washing with PBS, 100 μL lysis buffer consisting of 1% Triton X-100, 1 mM phenylmethylsulfonyl fluoride, and 50 mM sodium phosphate buffer (pH 6.5) in a volume ratio of 1:1:18 was added to each well. Following an incubation period of 30 min at −80 °C, the cell lysates were centrifuged at 12,000× g for 10 min at 4 °C to obtain the supernatants. […] Each assay was independently performed three times.

B16F10 cell TYR = molecular target: T3, B16F10 cell TYR (Mus musculus, UniProt P11344); assay: In situ B16F10 cellular TYR activity assay (L-dopa staining); format: cell-based, murine; conditions: α-MSH plus IBMX 72 h; for in situ B16F10 cell TYR activity (cell staining), concentration series: 2, 5, and 10 μM
T3 construct: The in situ cellular TYR activities of the 2-MMBI derivatives were investigated using B16F10 cells; endogenous in cells; host or cells: B16F10 murine melanoma cells stimulated with alpha-MSH and IBMX
T3 sequence (P11344 19-533): T2 sequence (P11344 19-533)
Experimental: B16F10 cells (2 × 10^3/well) were inoculated in each well of a 24-well microplate and cultured for 1 day in an incubator (37 °C and 5% CO2). […] Subsequently, stimulators (α-MSH [1 μM] and IBMX [200 μM]) were added to each well. […] Stained photographs were captured using a camera attached to a microscope (Motic, Hong Kong, China). Each assay was independently performed two times.

[4] = CuSO4 50 μM added externally, read-out: inhibition of mushroom TYR activity with CuSO4
[5] = no CuSO4 added externally, read-out: inhibition of mushroom TYR activity without CuSO4
[6] = 0.03 and 0.1 mM, 48 h exposure from 28 hpf

T1 sequence (C7FF04 2-392): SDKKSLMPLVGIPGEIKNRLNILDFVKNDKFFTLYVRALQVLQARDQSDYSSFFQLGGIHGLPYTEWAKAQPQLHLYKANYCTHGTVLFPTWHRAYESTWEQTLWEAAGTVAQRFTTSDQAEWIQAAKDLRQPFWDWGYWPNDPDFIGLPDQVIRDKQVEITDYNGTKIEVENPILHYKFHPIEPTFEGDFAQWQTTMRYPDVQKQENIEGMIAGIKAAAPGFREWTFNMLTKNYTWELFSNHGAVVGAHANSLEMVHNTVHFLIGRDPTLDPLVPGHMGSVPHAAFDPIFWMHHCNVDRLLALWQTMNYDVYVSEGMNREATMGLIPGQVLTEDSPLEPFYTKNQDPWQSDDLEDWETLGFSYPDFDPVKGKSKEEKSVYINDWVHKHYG

In the case of `SCc1nc2ccccc2[nH]1` [Derivative 1, (1H-Benzo[d]imidazol-2-yl)methanethiol], the inhibition at 20 µM (mushroom TYR [1]; [4]) is reported as 76%, the inhibition at 20 µM (mushroom TYR [1]; [5]) is reported as 86 to 89% and the inhibition mechanism (mushroom TYR [2]) is reported as “competitive TYR inhibitors”. The “effect on B16F10 cellular melanin production at 10 μM” value (“effect … at 10 μM” for short) (B16F10 cells) was “relatively low melanin inhibitory effect”, the “depigmentation of zebrafish larvae at 0.1 mM” value (zebrafish larvae; 0.1 mM, compared with kojic acid 20 mM, 48 h) was “much more potent inhibition of melanin production in zebrafish larvae than kojic acid” and the “pigmentation area of zebrafish larvae (CS analyzer, dorsal and lateral views)” value (zebrafish larvae; derivatives 0.03 and 0.1 mM, kojic acid 20 mM) was “reduced the pigmentation area more strongly than kojic acid in a concentration-dependent manner”.

In the case of `SCc1nc2cc(Cl)ccc2[nH]1` [Derivative 2, (5-Chloro-1H-benzo[d]imidazol-2-yl)methanethiol], the “depigmentation of zebrafish larvae at 0.03 mM” value (zebrafish larvae; 0.03 mM, compared with kojic acid 20 mM, 48 h) is reported as “much stronger depigmentation efficacy than kojic acid”, the “zebrafish larvae death at 0.1 mM” value (zebrafish larvae; 0.1 mM, 48 h exposure from 28 hpf) is reported as “died” and the ROS scavenging activity [3] is reported as “stronger ROS scavenging efficacy than the other derivatives”.

With `Fc1ccc2[nH]c(CS)nc2c1` [Derivative 4, (5-Fluoro-1H-benzo[d]imidazol-2-yl)methanethiol] the zebrafish larvae death (zebrafish larvae; [6]) was “all zebrafish larvae died at the tested concentrations”.

For `N#Cc1ccc2[nH]c(CS)nc2c1` [Derivative 5, 2-(Mercaptomethyl)-1H-benzo[d]imidazole-5-carbonitrile], the “depigmentation of zebrafish larvae at 0.03 and 0.1 mM” value (zebrafish larvae; 0.03 and 0.1 mM, 48 h) was “did not exhibit significant depigmentation”.

For `FC(F)(F)c1ccc2[nH]c(CS)nc2c1` [Derivative 7, (5-(Trifluoromethyl)-1H-benzo[d]imidazol-2-yl)methanethiol], the “effect … at 10 μM” value (B16F10 cells) was “inhibited melanin production more strongly than kojic acid; also recorded: strongest melanin inhibitory effect”, the “effect on B16F10 cellular melanin production at three concentrations” value (B16F10 cells) was “significantly decreased the melanin levels increased by the stimulators in a concentration-dependent manner; also recorded: potently reduced the stimulator-induced increase in melanin content to the levels observed in the control group” and the “effect on B16F10 cellular TYR activity” value (B16F10 cellular TYR) was “significantly reduced stimulator-enhanced cellular TYR activity in a dose-dependent manner”. The “in situ B16F10 cell TYR activity (cell staining) at 10 μM” value (B16F10 cell TYR) was “inhibited in situ B16F10 cell TYR activity much more potently than kojic acid”, the “in situ B16F10 cell TYR activity (cell staining), concentration series” value (B16F10 cell TYR) was “reduced the increase in cell staining induced by α-MSH and IBMX in a concentration-dependent manner” and the zebrafish larvae death (zebrafish larvae; [6]) was “all zebrafish larvae died at the tested concentrations”. For the same molecule, the ROS scavenging activity [3] was “stronger ROS scavenging efficacy than the other derivatives”.

For `Cc1cccc2[nH]c(CS)nc12` [Derivative 9, (4-Methyl-1H-benzo[d]imidazol-2-yl)methanethiol], the inhibition at 20 µM (mushroom TYR [1]; [4]) was 54%, the inhibition at 20 µM (mushroom TYR [1]; [5]) was 86 to 89% and the inhibition mechanism (mushroom TYR [2]) was “mixed TYR inhibitors”.

For `Cc1cc2nc(CS)[nH]c2cc1C` [Derivative 10, (5,6-Dimethyl-1H-benzo[d]imidazol-2-yl)methanethiol], the inhibition at 20 µM (mushroom TYR [1]; [4]) was 1%, the inhibition at 20 µM (mushroom TYR [1]; [5]) was 60% and the “effect … at 10 μM” value (B16F10 cells) was “inhibited melanin production more strongly than kojic acid”. The “effect on B16F10 cellular melanin production at three concentrations” value (B16F10 cells) was “significantly decreased the melanin levels increased by the stimulators in a concentration-dependent manner”, the “effect on B16F10 cellular TYR activity” value (B16F10 cellular TYR) was “significantly reduced stimulator-enhanced cellular TYR activity in a dose-dependent manner” and the “in situ B16F10 cell TYR activity (cell staining) at 10 μM” value (B16F10 cell TYR) was “inhibited in situ B16F10 cell TYR activity much more potently than kojic acid”. The “in situ B16F10 cell TYR activity (cell staining), concentration series” value (B16F10 cell TYR) was “reduced the increase in cell staining induced by α-MSH and IBMX in a concentration-dependent manner”.
